Source: PubChem BioAssay AID248 (DTP/NCI, 2004)
Where “and” joins values, the source holds several entries; their conditions need not be identical. Equal values may be shown once. Toxic doses and inconclusive results are not listed. Rule as the data show it: active = T/C of 150% or more; inactive = T/C below 125%.

Tested on: L1210 leukemia ip in BDF1 mice, survival T/C
Assay: NCI In Vivo Anticancer Drug Screen. Data for tumor model L1210 Leukemia (intraperitoneal) in B6D2F1 (BDF1) mice
Settings: endpoint: mean survival time, higher = longer survival
Outline: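 Antitumor effect is assessed in tumor-bearing animals. Survival in the compound arm is compared with a vehicle-dosed control arm and expressed as their quotient.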

[1] = dose: 100.0 mg/kg/injection, schedule: Q04DX003 (ip), vehicle: saline with Tween-80
[2] = dose: 200.0 mg/kg/injection, schedule: Q04DX003 (ip), vehicle: saline with Tween-80
[3] = dose: 100.0 mg/kg/injection, schedule: Q01DX009 (ip), vehicle: Klucel (hydroxypropylcellulose) (HPC)
[4] = dose: 100.0 mg/kg/injection, schedule: Q04DX003 (ip), vehicle: Klucel (hydroxypropylcellulose) (HPC)
[5] = dose: 200.0 mg/kg/injection, schedule: Q01DX009 (ip), vehicle: Klucel (hydroxypropylcellulose) (HPC)
[6] = dose: 200.0 mg/kg/injection, schedule: Q04DX003 (ip), vehicle: Klucel (hydroxypropylcellulose) (HPC)
[7] = dose: 400.0 mg/kg/injection, schedule: Q04DX003 (ip), vehicle: Klucel (hydroxypropylcellulose) (HPC)
[8] = dose: 100.0 mg/kg/injection, schedule: Q01DX001 (ip), vehicle: saline
[9] = dose: 200.0 mg/kg/injection, schedule: Q01DX001 (ip), vehicle: saline
[10] = dose: 400.0 mg/kg/injection, schedule: Q01DX001 (ip), vehicle: saline

Measured: T/C

Cc1c(C)c(C)c(CN2CC(=O)c3ccccc3C2=O)c(C)c1C
inactive: dose: 100.0 mg/kg/injection, schedule: Q04DX002 (ip), vehicle: Klucel (hydroxypropylcellulose) (HPC) 89 % of control | dose: 200.0 mg/kg/injection, schedule: Q04DX002 (ip), vehicle: Klucel (hydroxypropylcellulose) (HPC) 104 % of control | dose: 400.0 mg/kg/injection, schedule: Q04DX002 (ip), vehicle: Klucel (hydroxypropylcellulose) (HPC) 89 % of control

Cc1cc(N(CCCl)CCCl)c(C)cc1NC(=O)c1ccccc1
inactive: dose: 0.75 mg/kg/injection, schedule: Q01DX009 (ip), vehicle: other 109 % of control | dose: 1.5 mg/kg/injection, schedule: Q01DX009 (ip), vehicle: other 105 % of control | dose: 3.0 mg/kg/injection, schedule: Q01DX009 (ip), vehicle: other 124 % of control | dose: 5.0 mg/kg/injection, schedule: Q01DX001 (ip), vehicle: other 118 % of control | dose: 6.0 mg/kg/injection, schedule: Q01DX009 (ip), vehicle: carboxymethylcellulose (CMC) 119 % of control | dose: 10.0 mg/kg/injection, schedule: Q01DX001 (ip), vehicle: other 114 % of control | dose: 10.0 mg/kg/injection, schedule: Q01DX001 (ip), vehicle: saline 117 % of control | dose: 10.0 mg/kg/injection, schedule: Q01DX009 (ip), vehicle: carboxymethylcellulose (CMC) 119 % of control | dose: 17.6 mg/kg/injection, schedule: Q01DX001 (ip), vehicle: carboxymethylcellulose (CMC) 111 % of control | dose: 17.6 mg/kg/injection, schedule: Q01DX001 (ip), vehicle: other 110 % of control and 115 % of control | dose: 18.0 mg/kg/injection, schedule: Q01DX009 (ip), vehicle: carboxymethylcellulose (CMC) 117 % of control | dose: 20.0 mg/kg/injection, schedule: Q01DX001 (ip), vehicle: other 122 % of control | dose: 20.0 mg/kg/injection, schedule: Q01DX001 (ip), vehicle: saline 96 % of control | dose: 26.0 mg/kg/injection, schedule: Q01DX001 (ip), vehicle: carboxymethylcellulose (CMC) 120 % of control | dose: 26.0 mg/kg/injection, schedule: Q01DX001 (ip), vehicle: other 115 % of control | dose: 30.0 mg/kg/injection, schedule: Q01DX009 (ip), vehicle: carboxymethylcellulose (CMC) 101 % of control | dose: 30.0 mg/kg/injection, schedule: Q01DX009 (ip), vehicle: other 96 % of control | dose: 40.0 mg/kg/injection, schedule: Q01DX001 (ip), vehicle: other 124 % of control | dose: 40.0 mg/kg/injection, schedule: Q01DX001 (ip), vehicle: saline 122 % of control | dose: 80.0 mg/kg/injection, schedule: Q01DX001 (ip), vehicle: carboxymethylcellulose (CMC) 120 % of control | dose: 80.0 mg/kg/injection, schedule: Q01DX001 (ip), vehicle: saline 114 % of control | dose: 120.0 mg/kg/injection, schedule: Q01DX001 (ip), vehicle: carboxymethylcellulose (CMC) 88 % of control

O=NN(CCCl)C(=O)NC1[C@H](O)CCC[C@@H]1O (some centres undefined)
active: dose: 2.6 mg/kg/injection, schedule: Q01DX001 (ip), vehicle: saline 228 % of control | dose: 4.0 mg/kg/injection, schedule: Q01DX001 (ip), vehicle: saline 385 % of control | dose: 6.0 mg/kg/injection, schedule: Q01DX001 (ip), vehicle: saline 455 % of control | dose: 9.0 mg/kg/injection, schedule: Q01DX001 (ip), vehicle: saline 505 % of control | dose: 14.0 mg/kg/injection, schedule: Q01DX001 (ip), vehicle: saline 340 % of control and 502 % of control | dose: 22.0 mg/kg/injection, schedule: Q01DX001 (ip), vehicle: saline 256 % of control and 309 % of control

CCOc1ccc(Nc2cc([N+](=O)[O-])ccc2C(=O)O)cc1
inactive: dose: 25.0 mg/kg/injection, schedule: Q04DX003 (ip), vehicle: saline with Tween-80 101 % of control | dose: 50.0 mg/kg/injection, schedule: Q01DX009 (ip), vehicle: saline with Tween-80 103 % of control | dose: 50.0 mg/kg/injection, schedule: Q04DX003 (ip), vehicle: saline with Tween-80 95 % of control | dose: 100.0 mg/kg/injection, schedule: Q01DX009 (ip), vehicle: saline with Tween-80 109 % of control | [1] 107 % of control | dose: 200.0 mg/kg/injection, schedule: Q01DX009 (ip), vehicle: saline with Tween-80 98 % of control | [2] 93 % of control

CC1CCC(C(C)C)C(N(C)Cc2cc(Cl)cc(Cl)c2O)C1 (centres undefined)
inactive: dose: 50.0 mg/kg/injection, schedule: Q01DX009 (ip), vehicle: Klucel (hydroxypropylcellulose) (HPC) 107 % of control | [3] 105 % of control | [4] 104 % of control | [5] 107 % of control | [6] 98 % of control | [7] 101 % of control

Cc1ccc2c(c1N)C(=O)c1ccccc1C2=O
inactive: dose: 100.0 mg/kg/injection, schedule: Q01DX001 (ip), vehicle: carboxymethylcellulose (CMC) 103 % of control | dose: 200.0 mg/kg/injection, schedule: Q01DX001 (ip), vehicle: carboxymethylcellulose (CMC) 92 % of control | dose: 400.0 mg/kg/injection, schedule: Q01DX001 (ip), vehicle: carboxymethylcellulose (CMC) 96 % of control

C1CCC2(CC1)SCCCS2
inactive: [8] 102 % of control | [9] 113 % of control | [10] 110 % of control

Cc1c(CCO)sc[n+]1Cc1ccccc1
inactive: dose: 100.0 mg/kg/injection, schedule: Q04DX002 (ip), vehicle: saline 93 % of control | dose: 200.0 mg/kg/injection, schedule: Q04DX002 (ip), vehicle: saline 100 % of control

O=C(Cc1ccccc1)ONC(CCCCNC(=O)OCc1ccccc1)C(=O)Nc1ccc(Cc2ccc(NC(=O)C(CCCCNC(=O)OCc3ccccc3)NC(=O)OCc3ccccc3)cc2)cc1 (centres undefined)
inactive: dose: 50.0 mg/kg/injection, schedule: Q01DX001 (ip), vehicle: saline 95 % of control | [8] 95 % of control | [9] 95 % of control | [10] 95 % of control

O=C1C=CC(=O)C1
inactive: dose: 2.25 mg/kg/injection, schedule: Q01DX009 (ip), vehicle: saline 111 % of control | dose: 2.25 mg/kg/injection, schedule: Q04DX003 (ip), vehicle: saline 97 % of control | dose: 4.5 mg/kg/injection, schedule: Q01DX009 (ip), vehicle: saline 106 % of control | dose: 4.5 mg/kg/injection, schedule: Q04DX003 (ip), vehicle: saline 98 % of control | dose: 9.0 mg/kg/injection, schedule: Q04DX003 (ip), vehicle: saline 96 % of control

CCOC(=O)C1(C#N)C(=O)CSC1=Nc1ccccc1Cl (centres undefined)
inactive: dose: 100.0 mg/kg/injection, schedule: Q04DX002 (ip), vehicle: saline with Tween-80 95 % of control | dose: 200.0 mg/kg/injection, schedule: Q04DX002 (ip), vehicle: saline with Tween-80 102 % of control | dose: 400.0 mg/kg/injection, schedule: Q04DX002 (ip), vehicle: saline with Tween-80 95 % of control

CCC(=O)CC1CCCC(CC(=O)CC)N1C (centres undefined)
inactive: dose: 9.5 mg/kg/injection, schedule: Q01DX001 (ip), vehicle: saline 96 % of control | dose: 19.0 mg/kg/injection, schedule: Q01DX001 (ip), vehicle: saline 104 % of control | dose: 38.0 mg/kg/injection, schedule: Q01DX001 (ip), vehicle: saline 102 % of control

C[C@]12C[C@H](O)[C@H]3[C@@H](CCC4=CC(=O)CC[C@@]43C)[C@@H]1CC[C@@H]2C(=O)CF
inactive: dose: 50.0 mg/kg/injection, schedule: Q01DX Z (sc), vehicle: steriod suspending solution 95 % of control | dose: 250.0 mg/kg/injection, schedule: Q01DX Z (sc), vehicle: steriod suspending solution 102 % of control | dose: 500.0 mg/kg/injection, schedule: Q01DX Z (sc), vehicle: steriod suspending solution 98 % of control

O=C(NCCc1ccc(S(=O)(=O)Nc2ccc(N=Nc3ccc(N=Nc4ccccc4)cc3)cc2)cc1)C(N1CC1)(N1CC1)N1CC1
inactive: dose: 15.0 mg/kg/injection, schedule: Q01DX001 (ip), vehicle: saline 104 % of control | dose: 30.0 mg/kg/injection, schedule: Q01DX001 (ip), vehicle: saline 106 % of control

CCCCN/C(C)=C/C(=O)/C=C(\C)NCCCC
inactive: [3] 94 % of control | [4] 117 % of control | [5] 110 % of control | [6] 96 % of control | dose: 400.0 mg/kg/injection, schedule: Q01DX009 (ip), vehicle: Klucel (hydroxypropylcellulose) (HPC) 95 % of control | [7] 100 % of control

O=C(O)C1C2C=CC(C2)C1C(=O)Nc1ccccc1 (centres undefined)
inactive: [1] 106 % of control | [2] 96 % of control | dose: 400.0 mg/kg/injection, schedule: Q04DX003 (ip), vehicle: saline with Tween-80 101 % of control
